Where two headings read alike, the source gives them in different places. Marks after values point to notes of the source that are not given here.
Tests used:
IMR-90 cells = experiment: MTT assay, cytotoxicity against IMR-90 cells (model of normal cells); format: cell-based, human; details: MTT, 37 °C, treated for 24 h, read-out: EC50 against IMR-90
Protocol: Second, we conducted the quantitative evaluation of the cytotoxicity of 1, 2, and 3 against various cancer cell lines by an MTT (3-(4,5-dimethylthiazol-2-yl)-2,5-diphenyltetrazolium bromide) assay. Jurkat, MOLT-4 (these two cell lines are human T-lymphocyte leukemia cells), and U937 (human lymphoma) cells (1.5 × 10^4 cells/well) were incubated in RPMI 1640 medium containing 10% FBS (fetal bovine serum) containing 1, 2, and 3 (0–25 μM) at 37 °C for 24 h, and then treated with the MTT reagent. A549 (human alveolar adenocarcinoma) and IMR-90 (normal human fetal lung fibroblast as model of normal cells) cells (1.5 × 10^4 cells/well) were incubated in DMEM (low glucose) with 10% FBS containing 1, 2, and 3 (0–25 μM), HeLa S3 (human epithelial carcinoma cells) cells (1.5 × 10^4 cells/well) were incubated in MEM with 10% FBS containing these ligands (0–25 μM) for 24 h at 37 °C and then treated with the MTT reagent.
(§1) IMR-90 cells in DMEM medium with 10% FBS (1.5 × 10^5 cells/mL) were seeded in to 96 well plates and incubated for 24 h at 37 °C, MTT assays with poly(bpy) ligands and their metal complexes (0–100 μM), cisplatin (0–100 μM), and actinomycin D (0–10 μM) were performed following the same procedure described above. These experiments were carried out at least three times. • (b) MTT assay in the presence of a caspase inhibitor. Jurkat cells were pre-treated with Z-VAD-fmk (15 μM) for 3 h, a general caspases inhibitor, followed by the treatment with 1 (1 μM), BABTA-AM (12.5 μM) and cisplatin (50 μM), respectively, for 24 h, and then MTT assay was carried out as described above. • (c) For evaluation of the effect of metal ions on the cytotoxicity of 1, 2, BAPTA, and BAPTA-AM, these ligands were incubated with metal ions such as Cu(NO3)2, Zn(NO3)2, FeSO4, Co(NO3)2, and NiSO4 for 1 h, respectively, and added to Jurkat cells. The whole mixtures were incubated for 12, 24, and 48 h at [ligand] = 0.78–25 μM and at [M^2+] = 1.71–37.5 μM ([ligand]/[M^2+] = 1:1.5). The MTT assays were conducted as described above.

[1] = UV/vis absorption titration, apparent stability constant with Al^3+; format: binding; details: ligand 30 μM, DMSO/30 mM HEPES pH 7.4, I = 0.1 (NaNO3) (7/3), 37 °C
Excerpt: (§2) Although simple comparison of the stability of metal complexes is difficult due to the different units for 1:1 complexation (M^–1) and 1:2 complexation (M^–2), it is likely that the thermodynamic stability of Co^2+-(1)2 and Fe^2+-(1)2 complexes are similar to that of Zn^2+-1, Ni^2+-1, and Cu^2+-1 complexes.[40]
(§3) All reagents and solvents were purchased at the highest commercial quality and were used without further purification. Anhydrous DMF was obtained by distillation from calcium hydride. All aqueous solutions were prepared using deionized and distilled water. Melting points were measured using a Yanaco MP-J3 Micro Melting Point apparatus and are uncorrected. UV/vis absorption spectra were recorded on a JASCO V-630 spectrophotometer at 37 °C. […] The apparent stability constants of metal–ligand complexes (Ks) were calculated by using the Bind Works 1.0 software provided by CSC (Calorimetry Science Corp.), an interactive PC software for the analysis of Binding Isotherms on Isothermal Titration Calorimeters (ITCs), to which the change in absorption values obtained by the UV/vis absorption titrations are input.[62] IR spectra were measured with a PerkinElmer FT-IR spectrophotometer (Spectrum 100) at room temperature. ^1H (300 and 400 MHz) NMR spectra were recorded on a JEOL Always 300 spectrometer and a JEOL Always 400 spectrometer, respectively. […]

Jurkat cells = experiment: MTT assay of Jurkat cells, effect of metal ions and incubation time on cytotoxicity of ligands; format: cell-based, human; details: Homo sapiens, Jurkat, no metal
Protocol: Next, we examined the effect of complexation of 1, 2, BAPTA, and BAPTA-AM with metal ions such as Cu(NO3)2, Zn(NO3)2, FeSO4, Co(NO3)2, and NiSO4 on their cytotoxicity against Jurkat cells. Mixture of ligands and metal ions were incubated for 1 h at 37 °C, and added to Jurkat cells for incubation for 12, 24, and 48 h at [ligand] = 0.78–25 μM and [M^2+] = 1.71–37.5 μM ([ligand]: [M^2+] = 1:1.5). After that, MTT assays were carried out, as shown in Figure S3 of the Supporting Information.
as §1

[2] = UV/vis absorption titration, apparent stability constant with Ni^2+; format: binding; details: 37 °C, 1:1 complex
Protocol: (§4) All reagents and solvents were purchased at the highest commercial quality and were used without further purification. Anhydrous DMF was obtained by distillation from calcium hydride. All aqueous solutions were prepared using deionized and distilled water. Melting points were measured using a Yanaco MP-J3 Micro Melting Point apparatus and are uncorrected. UV/vis absorption spectra were recorded on a JASCO V-630 spectrophotometer at 37 °C. The UV/vis absorption titrations of 1 with metal ions were carried out by addition of 10 mM solutions of Zn(NO3)2, NiSO4, Co(NO3)2, Fe(NO3)2, and Al(NO3)3 in H2O and 10 mM solutions of Cu(NO3)2 in DMSO. The apparent stability constants of metal–ligand complexes (Ks) were calculated by using the Bind Works 1.0 software provided by CSC (Calorimetry Science Corp.), an interactive PC software for the analysis of Binding Isotherms on Isothermal Titration Calorimeters (ITCs), to which the change in absorption values obtained by the UV/vis absorption titrations are input.[62] IR spectra were measured with a PerkinElmer FT-IR spectrophotometer (Spectrum 100) at room temperature. ^1H (300 and 400 MHz) NMR spectra were recorded on a JEOL Always 300 spectrometer and a JEOL Always 400 spectrometer, respectively. Luminescence imaging studies were performed using a fluorescent microscope (Biorevo, BZ-9000, Keyence). […]

[3] = UV/vis absorption titration, apparent stability constant with Zn^2+; format: binding; details: 37 °C, 1:1 complex
Protocol: as §4

[4] = UV/vis absorption titration, apparent stability constant with Fe^2+; format: binding; details: ligand 30 μM, DMSO/30 mM HEPES pH 7.4 (7/3), 37 °C, approximate, assuming 1:1 complexation (1:2 complex)
Excerpt: as §2, §3

[5] = UV/vis absorption titration, apparent stability constant with Cu^2+; format: binding; details: ligand 30 μM, DMSO/30 mM HEPES pH 7.4, I = 0.1 (NaNO3) (7/3), 37 °C, 1:1 complex
Protocol: as §4

[6] = UV/vis absorption titration, apparent stability constant with Co^2+; format: binding; details: ligand 30 μM, DMSO/30 mM HEPES pH 7.4 (7/3), 37 °C, approximate, assuming 1:1 complexation (1:2 complex)
Excerpt: as §2, §3

[7] = ligand 30 μM, DMSO/30 mM HEPES pH 7.4, I = 0.1 (NaNO3) (7/3)

Row | apparent stability constant log Ks with Al(NO3)3 [1] | Kd ([2]; DMSO/30 mM HEPES pH 7.4 (7/3), read-out: dissociation constant Kd (= 1/Ks) of Ni^2+ complex) [nM] | apparent stability constant log Ks with NiSO4 [2, 7] | Kd ([3]; DMSO/30 mM HEPES pH 7.4 (7/3), read-out: dissociation constant Kd (= 1/Ks) of Zn^2+ complex) [nM] | apparent stability constant log Ks with Zn(NO3)2 [3, 7] | apparent stability constant log Ks with Fe(NO3)2 [4] | apparent stability constant log Ks with Cu(NO3)2 [5] | apparent stability constant log Ks with Co(NO3)2 [6] | Compound | EC50 (IMR-90 cells) [nM] | EC50 (IMR-90 cells; Homo sapiens, IMR-90) [nM] | EC50 (Jurkat cells; incubation 12 h (Figure 9), read-out: EC50 against Jurkat cells, metal-free ligand) [nM] | EC50 (Jurkat cells; incubation 24 h (Figure 9b), read-out: EC50 against Jurkat cells, ligand alone) [nM] | EC50 (Jurkat cells; incubation 48 h (Figure 9, S4), read-out: EC50 against Jurkat cells, metal-free ligand) [nM]
1 |  |  |  |  |  |  |  |  | N.N.[Cl][Pt][Cl] [cisplatin, reference compound] | > 100000 |  |  |  | 
2 | <1 | 610 ± 20 | 6.21 ± 0.01 (1:1 complex) | 280 ± 10 | 6.56 ± 0.02 (1:1 complex) | >5.5 ^b (1:2 complex) | 7.29 ± 0.02 (1:1 complex) | >6 ^b (1:2 complex) | c1ccc(-c2ccc(OCc3cc(COc4ccc(-c5ccccn5)nc4)cc(COc4ccc(-c5ccccn5)nc4)c3)cn2)nc1 [compound 1, 1,3,5-Tris(([2,2′-Bipyridin]-5-yloxy)methyl)benzene] |  | > 100000 | ~9000 | 137 | ~60
